Earlier results in patent US4894235A, “Nifedipine-containing form of administration and method for its production” (Dr. Rentschler, Arzneimmittel GmbH & Co., priority 1984, dated 1990).

Tests used:
[1] = influence of light
[2] = Ramsch, Selecta 10, p. 860, 1983

In the case of `COC(=O)C1=C(C)NC(C)=C(C(=O)OC)C1c1ccccc1[N+](=O)[O-]` [Nifedipine, 1,4-dihydro-2,6-dimethyl-4-(2-nitrophenyl)-3,5-pyridine-dicarboxylic acid-dimethylester], the photo-sensitivity [1] is listed as “very photo-sensitive” and the “lower limit for blood plasma levels” value [2] is listed as 10 to 15 nanograms per milliliter.
